Consider five compounds from the supplement of paper PMC10307832.

In the first test the test system is NCI-H661. Put plainly: relative viability (nuclei count vs DMSO), 5 days (fraction); higher = more cells survive. The conditions noted are these: first compound 0.8 µM. In short, it runs like this:
(§1)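 Relative viability was taken as the ratio of nuclei in treated wells to nuclei in vehicle wells. Lung cancer cell lines in 1536-well plates received compounds by pin tool one day after seeding, either one drug alone or a fixed anchor-drug dose plus five library-drug doses (not always all listed) in √10 steps. Nuclei were counted on 4× images after 5 days of treatment, and values are medians of duplicate plates.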
The compound `CCCCCCCCCCCC1=C(O)C(=O)C=C(O)C1=O` [Embelin] + CS(=O)(=O)CCNCc1ccc(-c2ccc3ncnc(Nc4ccc(OCc5cccc(F)c5)c(Cl)c4)c3c2)o1 [Lapatinib] (partner 2 µM) registered a relative viability of 0.596.

Take `CCCCCCCCCCCC1=C(O)C(=O)C=C(O)C1=O` [Embelin] + C[C@@H](Oc1cc(-c2cnn(C3CCNCC3)c2)cnc1N)c1c(Cl)ccc(F)c1Cl [Crizotinib] (partner 1 µM): the relative viability turned out to be 1.09.

The test is the same for the next values; noted with them: first compound 2.53 µM.
For `CCCCCCCCCCCC1=C(O)C(=O)C=C(O)C1=O` [Embelin] + O=C(CCCCCCC(=O)Nc1ccccc1)NO [Vorinostat] (partner 1 µM), the relative viability came out at 0.788.

In the case of `CCCCCCCCCCCC1=C(O)C(=O)C=C(O)C1=O` [Embelin] + C[C@]1(O)C[C@@H](c2nc(-c3ccc4ccc(-c5ccccc5)nc4c3)c3c(N)nccn32)C1 [Linsitinib] (partner 1 µM), the relative viability worked out at 0.546.

For `CCCCCCCCCCCC1=C(O)C(=O)C=C(O)C1=O` [Embelin] + CC(C)C[C@H](NC(=O)[C@H](Cc1ccccc1)NC(=O)c1cnccn1)B(O)O [Bortezomib] (partner 0.002 µM), the relative viability amounted to 0.997.

Regarding `CCCCCCCCCCCC1=C(O)C(=O)C=C(O)C1=O` [Embelin] + CS(=O)(=O)CCNCc1ccc(-c2ccc3ncnc(Nc4ccc(OCc5cccc(F)c5)c(Cl)c4)c3c2)o1 [Lapatinib] (partner 2 µM), the relative viability came to 0.545.

Consider `CCCCCCCCCCCC1=C(O)C(=O)C=C(O)C1=O` [Embelin] + C[C@@H](Oc1cc(-c2cnn(C3CCNCC3)c2)cnc1N)c1c(Cl)ccc(F)c1Cl [Crizotinib] (partner 1 µM), for which the relative viability was determined as 0.846.

Still in this test, the particulars now being: first compound 8 µM.
`CCCCCCCCCCCC1=C(O)C(=O)C=C(O)C1=O` [Embelin] + O=C(CCCCCCC(=O)Nc1ccccc1)NO [Vorinostat] (partner 1 µM) gave a relative viability of 0.745.

`CCCCCCCCCCCC1=C(O)C(=O)C=C(O)C1=O` [Embelin] + C[C@]1(O)C[C@@H](c2nc(-c3ccc4ccc(-c5ccccc5)nc4c3)c3c(N)nccn32)C1 [Linsitinib] (partner 1 µM) showed a relative viability of 0.623.

`CCCCCCCCCCCC1=C(O)C(=O)C=C(O)C1=O` [Embelin] + CC(C)C[C@H](NC(=O)[C@H](Cc1ccccc1)NC(=O)c1cnccn1)B(O)O [Bortezomib] (partner 0.002 µM) had a relative viability of 0.78.

On to `CCCCCCCCCCCC1=C(O)C(=O)C=C(O)C1=O` [Embelin] + CS(=O)(=O)CCNCc1ccc(-c2ccc3ncnc(Nc4ccc(OCc5cccc(F)c5)c(Cl)c4)c3c2)o1 [Lapatinib] (partner 2 µM), for which the relative viability came out at 0.48.

Compound `CCCCCCCCCCCC1=C(O)C(=O)C=C(O)C1=O` [Embelin] + C[C@@H](Oc1cc(-c2cnn(C3CCNCC3)c2)cnc1N)c1c(Cl)ccc(F)c1Cl [Crizotinib] (partner 1 µM) displayed a relative viability of 0.997.

The next test deals with NCI-H1915. The test is described as above. Particulars: first compound 0.08 µM. In short, it runs like this: as §1
`CCCCCCCCCCCC1=C(O)C(=O)C=C(O)C1=O` [Embelin] + O=C(CCCCCCC(=O)Nc1ccccc1)NO [Vorinostat] (partner 1 µM) gave a relative viability of 0.563.

For `CCCCCCCCCCCC1=C(O)C(=O)C=C(O)C1=O` [Embelin] + C[C@]1(O)C[C@@H](c2nc(-c3ccc4ccc(-c5ccccc5)nc4c3)c3c(N)nccn32)C1 [Linsitinib] (partner 1 µM), the relative viability came out at 1.17.

Consider `CCCCCCCCCCCC1=C(O)C(=O)C=C(O)C1=O` [Embelin] + CC(C)C[C@H](NC(=O)[C@H](Cc1ccccc1)NC(=O)c1cnccn1)B(O)O [Bortezomib] (partner 0.002 µM), for which the relative viability came to 0.951.

As for `CCCCCCCCCCCC1=C(O)C(=O)C=C(O)C1=O` [Embelin] + CS(=O)(=O)CCNCc1ccc(-c2ccc3ncnc(Nc4ccc(OCc5cccc(F)c5)c(Cl)c4)c3c2)o1 [Lapatinib] (partner 2 µM), the relative viability was determined as 0.96.

Take `CCCCCCCCCCCC1=C(O)C(=O)C=C(O)C1=O` [Embelin] + C[C@@H](Oc1cc(-c2cnn(C3CCNCC3)c2)cnc1N)c1c(Cl)ccc(F)c1Cl [Crizotinib] (partner 1 µM): the relative viability was 0.988.

Staying with this test, now noted: first compound 0.8 µM.
In turn, `CCCCCCCCCCCC1=C(O)C(=O)C=C(O)C1=O` [Embelin] + O=C(CCCCCCC(=O)Nc1ccccc1)NO [Vorinostat] (partner 1 µM) gave a relative viability of 0.544.

The compound `CCCCCCCCCCCC1=C(O)C(=O)C=C(O)C1=O` [Embelin] + C[C@]1(O)C[C@@H](c2nc(-c3ccc4ccc(-c5ccccc5)nc4c3)c3c(N)nccn32)C1 [Linsitinib] (partner 1 µM) had a relative viability of 1.11.

Compound `CCCCCCCCCCCC1=C(O)C(=O)C=C(O)C1=O` [Embelin] + CC(C)C[C@H](NC(=O)[C@H](Cc1ccccc1)NC(=O)c1cnccn1)B(O)O [Bortezomib] (partner 0.002 µM) registered a relative viability of 1.02.

In the case of `CCCCCCCCCCCC1=C(O)C(=O)C=C(O)C1=O` [Embelin] + CS(=O)(=O)CCNCc1ccc(-c2ccc3ncnc(Nc4ccc(OCc5cccc(F)c5)c(Cl)c4)c3c2)o1 [Lapatinib] (partner 2 µM), the relative viability was found to be 0.984.

The compound `CCCCCCCCCCCC1=C(O)C(=O)C=C(O)C1=O` [Embelin] + C[C@@H](Oc1cc(-c2cnn(C3CCNCC3)c2)cnc1N)c1c(Cl)ccc(F)c1Cl [Crizotinib] (partner 1 µM) gave a relative viability of 1.03.

The same test, now with this note: first compound 2.53 µM.
As for `CCCCCCCCCCCC1=C(O)C(=O)C=C(O)C1=O` [Embelin] + O=C(CCCCCCC(=O)Nc1ccccc1)NO [Vorinostat] (partner 1 µM), the relative viability was 0.521.

As to `CCCCCCCCCCCC1=C(O)C(=O)C=C(O)C1=O` [Embelin] + C[C@]1(O)C[C@@H](c2nc(-c3ccc4ccc(-c5ccccc5)nc4c3)c3c(N)nccn32)C1 [Linsitinib] (partner 1 µM), the relative viability came out at 1.13.

`CCCCCCCCCCCC1=C(O)C(=O)C=C(O)C1=O` [Embelin] + CC(C)C[C@H](NC(=O)[C@H](Cc1ccccc1)NC(=O)c1cnccn1)B(O)O [Bortezomib] (partner 0.002 µM) yielded a relative viability of 1.13.

Regarding `CCCCCCCCCCCC1=C(O)C(=O)C=C(O)C1=O` [Embelin] + CS(=O)(=O)CCNCc1ccc(-c2ccc3ncnc(Nc4ccc(OCc5cccc(F)c5)c(Cl)c4)c3c2)o1 [Lapatinib] (partner 2 µM), the relative viability was 1.08.

`CCCCCCCCCCCC1=C(O)C(=O)C=C(O)C1=O` [Embelin] + C[C@@H](Oc1cc(-c2cnn(C3CCNCC3)c2)cnc1N)c1c(Cl)ccc(F)c1Cl [Crizotinib] (partner 1 µM) gave a relative viability of 0.993.

The test is the same for the next values; noted with them: first compound 8 µM.
`CCCCCCCCCCCC1=C(O)C(=O)C=C(O)C1=O` [Embelin] + O=C(CCCCCCC(=O)Nc1ccccc1)NO [Vorinostat] (partner 1 µM) displayed a relative viability of 0.473.

Regarding `CCCCCCCCCCCC1=C(O)C(=O)C=C(O)C1=O` [Embelin] + C[C@]1(O)C[C@@H](c2nc(-c3ccc4ccc(-c5ccccc5)nc4c3)c3c(N)nccn32)C1 [Linsitinib] (partner 1 µM), the relative viability was 1.12.
